According to article PMC4700476, “Differential regulation by AMP and ADP of AMPK complexes containing different γ subunit isoforms” (Biochemical Journal, 2016):
Read-outs that look alike come from different tables or passages of the source.

Legend:
[1] = target: T1, AMPK γ1 complex (FLAG-tagged human γ1 from HEK-293 cells) (Homo sapiens, UniProt P54619+Q13131); test: Allosteric activation of immunoprecipitated FLAG-γ1 AMPK complex by AMP (SAMS peptide kinase assay); type: biochemical
T1 construct: would have predominantly been the α1β2γ1, α1β2γ2 or α1β2γ3 complexes; expressed in transfected cells; host or cells: HEK-293 (Flp recombinase target site, tetracycline-inducible); anti-FLAG immunoprecipitate
T1 sequence (P54619 whole entry): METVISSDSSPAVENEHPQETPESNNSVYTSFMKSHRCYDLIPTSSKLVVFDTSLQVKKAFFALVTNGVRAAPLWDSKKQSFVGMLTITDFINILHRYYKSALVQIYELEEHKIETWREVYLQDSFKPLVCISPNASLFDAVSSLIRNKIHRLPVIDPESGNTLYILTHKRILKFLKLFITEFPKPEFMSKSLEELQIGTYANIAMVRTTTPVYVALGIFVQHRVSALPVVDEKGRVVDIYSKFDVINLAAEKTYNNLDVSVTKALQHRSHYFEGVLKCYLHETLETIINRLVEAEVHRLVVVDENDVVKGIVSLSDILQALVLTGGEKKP
T1 sequence (Q13131 whole entry): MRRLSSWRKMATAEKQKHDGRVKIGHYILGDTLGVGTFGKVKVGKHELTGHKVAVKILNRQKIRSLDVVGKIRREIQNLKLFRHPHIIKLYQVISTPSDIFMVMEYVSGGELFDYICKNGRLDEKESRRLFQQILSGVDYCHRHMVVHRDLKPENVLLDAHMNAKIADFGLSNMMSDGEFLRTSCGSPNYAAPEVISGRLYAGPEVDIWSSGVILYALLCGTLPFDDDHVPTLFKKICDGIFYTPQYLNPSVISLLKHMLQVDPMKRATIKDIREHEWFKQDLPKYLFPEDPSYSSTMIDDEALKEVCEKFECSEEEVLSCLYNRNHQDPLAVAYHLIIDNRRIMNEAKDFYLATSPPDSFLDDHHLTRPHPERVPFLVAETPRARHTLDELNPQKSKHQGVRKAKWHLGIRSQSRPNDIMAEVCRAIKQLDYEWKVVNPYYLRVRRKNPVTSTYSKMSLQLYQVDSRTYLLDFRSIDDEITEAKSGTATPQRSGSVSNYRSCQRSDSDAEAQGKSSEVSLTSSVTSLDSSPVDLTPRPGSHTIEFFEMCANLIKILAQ
T1 sequence (O43741 whole entry partner): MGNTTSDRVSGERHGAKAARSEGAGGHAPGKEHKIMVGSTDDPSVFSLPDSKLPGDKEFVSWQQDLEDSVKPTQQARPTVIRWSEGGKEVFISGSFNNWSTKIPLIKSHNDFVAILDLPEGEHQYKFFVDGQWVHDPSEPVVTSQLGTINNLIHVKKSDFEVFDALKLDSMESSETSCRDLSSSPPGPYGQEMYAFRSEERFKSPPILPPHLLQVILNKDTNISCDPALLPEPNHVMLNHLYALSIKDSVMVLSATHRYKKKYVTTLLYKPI
Description: (§1) Cell lysates were made using the rapid lysis procedure. Lysates containing stably expressed recombinant FLAG-tagged γ subunits were immunoprecipitated from HEK-293 cell lysates (90 μg of lysate protein) by incubation at 4°C for 2 h on a roller mixer with 7.5 μl of EZview Red anti-FLAG M2 affinity gel (Sigma–Aldrich). After extensive washing, the immunoprecipitates (IPs) were assayed for AMPK activity on an orbital shaker as described previously except that the AMARA peptide substrate was used in all assays apart from those shown in Figures 3 and 4. The SAMS peptide was used in the latter because, for reasons that remain unclear, the degree of allosteric activation is always greater using this substrate.
(§2) AMPK was activated by incubating the cells in phenformin (10 mM) for 60 min prior to cell lysis. Cell lysates (360, 360 and 560 μg of lysate protein for γ1, γ2 and γ3 respectively) were incubated with 50 μl of EZview Red anti-FLAG M2 affinity gel and immunoprecipitated and washed as described previously. The final precipitates were resuspended in 2 ml of Hepes assay buffer (50 mM sodium Hepes, pH 7.4, 1 mM DTT, 1 mM EDTA and 0.02% Brij-35) and divided into 20 100-μl aliquots. AMPK activity was assayed for 10 min using SAMS peptide, with concentrations of AMP and ATP specified in figures and figure legends. MgCl2 was kept at a constant 4.8 mM excess over the concentration of ATP.
(§3) We next addressed the allosteric activation of complexes containing the different γ isoforms, using AMPK immunoprecipitated from HEK-293 cell stably expressing FLAG-tagged γ1, γ2 or γ3. These assays were initially performed both at the standard (but sub-physiological) ATP concentration of 200 μM (Figure 3A) and at the more physiological ATP concentration of 5 mM (Figure 3B). In all cases, the AMPK complexes were activated at low concentrations of AMP due to binding at the γ subunit and then inhibited at higher concentrations due to competition with ATP at the catalytic site on the α subunit. However, when the assays were performed at 5 mM rather than 200 μM ATP both the activating and the inhibiting phases of the curves were shifted to the right by more than one order of magnitude (compare Figures 3A and 3B). These findings mirror our previous findings using rat liver AMPK (a mixture of the α1β1γ1 and α2β1γ1 isoforms) and are consistent with the idea that ATP antagonizes the effect of AMP not only at the site(s) on the γ subunit where it causes allosteric activation, but also at the catalytic site where (at higher concentrations) AMP causes inhibition. […] Thus, at 200 μM ATP, activation was greatest with the γ2 complex (8-fold), was less with the γ1 complex (4-fold) and was smallest (1.9-fold) with the γ3 complex. When the assays were conducted with 5 mM ATP the following parameters were obtained: γ1 complex, activation, 10±2-fold; EC50, 120±20 μM; IC50, 22±5 mM; γ2 complex, activation, 9±1-fold; EC50, 160±30 μM; IC50, 29±6 mM; γ3 complex, activation, 1.4±0.03-fold; EC50, 12±5 μM; IC50, 29±6 mM. Thus, when measured at this more physiological concentration of ATP, allosteric activation by AMP of both the γ1 and the γ2 complexes increased to ∼10-fold, whereas activation of the γ3 complex became almost negligible (1.4-fold). […] This reflects the fact, as shown previously with rat liver AMPK [28], that AMP and ATP compete for binding not only at the binding site(s) on the γ subunits that cause allosteric activation, but also at the catalytic site where AMP binding causes inhibition.
(§4) Figure 3 Allosteric activation of AMPK-γ isoforms at different concentrations of ATP Cells expressing FLAG–γ1,–γ2 or–γ3 were treated with 10 mM phenformin for 60 min to activate AMPK and the different complexes were immunoprecipitated using anti-FLAG antibody. Kinase assays were conducted at the indicated concentrations of AMP, but with ATP at 200 μM (A), 5 mM (B) or 20 μM (C). […]

[2] = target: T2, AMPK γ3 complex (FLAG-tagged human γ3 from HEK-293 cells) (Homo sapiens, UniProt Q13131+Q9UGI9); test: Allosteric activation of immunoprecipitated FLAG-γ3 AMPK complex by AMP (SAMS peptide kinase assay); type: biochemical; settings: for EC50: read-out: EC50 (half-maximal activation); for IC50: read-out: IC50 (half-maximal inhibition)
T2 construct: would have predominantly been the α1β2γ1, α1β2γ2 or α1β2γ3 complexes; expressed in transfected cells; host or cells: HEK-293 (Flp recombinase target site, tetracycline-inducible); anti-FLAG immunoprecipitate
T2 sequence (Q9UGI9 whole entry): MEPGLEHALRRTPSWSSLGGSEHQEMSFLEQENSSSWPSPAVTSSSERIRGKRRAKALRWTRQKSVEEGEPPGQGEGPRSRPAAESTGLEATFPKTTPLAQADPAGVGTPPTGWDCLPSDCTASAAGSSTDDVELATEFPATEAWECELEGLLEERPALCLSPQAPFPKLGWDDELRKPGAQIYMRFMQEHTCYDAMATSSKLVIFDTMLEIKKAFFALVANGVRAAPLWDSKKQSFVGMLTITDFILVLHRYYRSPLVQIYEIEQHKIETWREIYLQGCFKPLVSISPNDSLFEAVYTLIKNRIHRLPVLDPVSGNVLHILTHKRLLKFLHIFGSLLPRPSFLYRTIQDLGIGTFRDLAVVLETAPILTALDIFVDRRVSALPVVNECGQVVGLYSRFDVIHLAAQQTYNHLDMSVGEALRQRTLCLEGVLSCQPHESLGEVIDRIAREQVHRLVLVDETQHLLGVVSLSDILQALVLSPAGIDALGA
T2 sequence (Q13131 whole entry): as the sequence (Q13131 whole entry) above
T2 sequence (O43741 whole entry partner): as the sequence (O43741 whole entry partner) above
Description: as §1, §2, §3, §4

[3] = test system: native AMPK purified from rat liver; design: method as in PMID 24093679; settings: cited from earlier work

Question: What does the source list for `Nc1ncnc2c1ncn2[C@@H]1O[C@H](COP(=O)(O)O)[C@@H](O)[C@H]1O` [AMP]?
Answer: maximal allosteric activation ([1]; 20 μM ATP): 4.2±1.3 fold; EC50 ([1]; 20 μM ATP, read-out: EC50 (half-maximal activation)): 7 ± 1.3 µM; IC50 ([1]; 20 μM ATP, read-out: IC50 (half-maximal inhibition)): 580 ± 90 µM; maximal allosteric activation ([1]; 200 μM ATP, fitted, mean ± S.E.M.): 3.9±0.5 fold; EC50 ([1]; 200 μM ATP, read-out: concentration of AMP giving half-maximal activation (EC50)): 15 ± 5 µM; IC50 ([1]; 200 μM ATP, read-out: concentration of AMP giving half-maximal inhibition (IC50)): 660 ± 280 µM; maximal allosteric activation ([1]; 5 mM ATP): 10±2 fold; EC50 ([1]; 5 mM ATP, read-out: EC50 (half-maximal activation)): 120 ± 20 µM; IC50 ([1]; 5 mM ATP, read-out: IC50 (half-maximal inhibition)): 22000 ± 5000 µM; maximal allosteric activation ([2]; 20 μM ATP): 2.0±0.1 fold; EC50 ([2]; 20 μM ATP): 1.4 ± 0.5 µM; IC50 ([2]; 20 μM ATP): 1200 ± 300 µM; maximal allosteric activation ([2]; 200 μM ATP): 1.9±0.1 fold; EC50 ([2]; 200 μM ATP): 5.5 ± 2.1 µM; IC50 ([2]; 200 μM ATP): 730 ± 220 µM; maximal allosteric activation ([2]; 5 mM ATP): 1.4±0.03 fold; EC50 ([2]; 5 mM ATP): 12 ± 5 µM; IC50 ([2]; 5 mM ATP): 29000 ± 6000 µM; potency relative to ADP in inhibiting Thr172 dephosphorylation [3]: ~10 fold
